{"source": "patent US4362743A", "about": "“Antibacterial monic acid esters” (Beecham Group Limited, priority 1980, dated 1982)", "assay_type_in_all_cases": "cell-based", "key": {"[1]": {"test_system": "M. suipneumoniae PW/C/210", "test": "Anti-mycoplasmal activity in vitro MIC", "conditions": "Mesomycoplasma hyopneumoniae, 144 h"}, "M. suipneumoniae LABER": {"test_system": "M. suipneumoniae LABER", "test": "Anti-mycoplasmal activity in vitro MIC", "conditions": "Mesomycoplasma hyopneumoniae, 144 h"}, "M. suipneumoniae UCD 1": {"test_system": "M. suipneumoniae UCD 1", "test": "Anti-mycoplasmal activity in vitro MIC", "conditions": "Mesomycoplasma hyopneumoniae, UCD1, 144 h; M. suipneumoniae UCD 1; Friis broth, 0.9% agarose, 6 days 37° C.; read-out: M.I.C."}, "[2]": {"test_system": "M. suipneumoniae NCTC 10110", "test": "Anti-mycoplasmal activity in vitro MIC", "conditions": "Mesomycoplasma hyopneumoniae, NCTC10110, 144 h; M. suipneumoniae NCTC 10110; Friis broth, 0.9% agarose, 6 days 37° C.; read-out: M.I.C."}, "M. suipneumoniae MS16": {"test_system": "M. suipneumoniae MS16", "test": "Anti-mycoplasmal activity in vitro MIC", "conditions": "Mesomycoplasma hyopneumoniae, MS16, 144 h"}, "M. hyorhinis ATCC 25021": {"test_system": "M. hyorhinis ATCC 25021", "test": "Anti-mycoplasmal activity in vitro MIC", "conditions": "Mesomycoplasma hyorhinis, ATCC25021, 144 h"}, "[3]": {"test_system": "M. bovigenitalium ATCC 14173", "test": "Anti-mycoplasmal activity in vitro MIC", "conditions": "144 h; M. bovigenitalium ATCC 14173; Friis broth, 0.9% agarose, 6 days 37° C.; read-out: M.I.C."}, "M. hyorhinis ATCC 23234": {"test_system": "M. hyorhinis ATCC 23234", "test": "Anti-mycoplasmal activity in vitro MIC", "conditions": "Mesomycoplasma hyorhinis, ATCC23234, 144 h"}, "M. dispar NCTC 10125": {"test_system": "M. dispar NCTC 10125", "test": "Anti-mycoplasmal activity in vitro MIC", "conditions": "144 h"}, "M. bovis NCTC 10131": {"test_system": "M. bovis NCTC 10131", "test": "microbe, parasite or virus in culture", "conditions": "NCTC10131, 144 h"}, "[4]": {"test_system": "M. hyosynoviae ATCC 25591", "test": "Anti-mycoplasmal activity in vitro MIC", "conditions": "144 h"}, "M. suipneumoniae HK (2)": {"test_system": "M. suipneumoniae HK (2)", "test": "Anti-mycoplasmal activity in vitro MIC", "conditions": "Mesomycoplasma hyopneumoniae, 144 h; M. suipneumoniae HK (2); Friis broth, 0.9% agarose, 6 days 37° C.; read-out: M.I.C."}, "[5]": {"test_system": "M. suipneumoniae J2206/183b", "test": "Anti-mycoplasmal activity in vitro MIC", "conditions": "Mesomycoplasma hyopneumoniae, 144 h; M. suipneumoniae J2206/183b; Friis broth, 0.9% agarose, 6 days 37° C.; read-out: M.I.C."}, "M. suipneumoniae JF 435": {"test_system": "M. suipneumoniae JF 435", "test": "Anti-mycoplasmal activity in vitro MIC", "conditions": "Mesomycoplasma hyopneumoniae, JF435, 144 h; M. suipneumoniae JF 435; Friis broth, 0.9% agarose, 6 days 37° C.; read-out: M.I.C."}, "[6]": {"test_system": "M. suipneumoniae ATCC 25095", "test": "Anti-mycoplasmal activity in vitro MIC", "conditions": "Mesomycoplasma hyopneumoniae, ATCC25095, 144 h"}, "M. suipneumoniae TAM 6N": {"test_system": "M. suipneumoniae TAM 6N", "test": "Anti-mycoplasmal activity in vitro MIC", "conditions": "Mesomycoplasma hyopneumoniae, TAM6N, 144 h; M. suipneumoniae TAM 6N; Friis broth, 0.9% agarose, 6 days 37° C.; read-out: M.I.C."}, "M. suipneumoniae Str. 11": {"test_system": "M. suipneumoniae Str. 11", "test": "Anti-mycoplasmal activity in vitro MIC", "conditions": "Mesomycoplasma hyopneumoniae, STR.11, 144 h"}, "M. pneumoniae ATCC 15492": {"test_system": "M. pneumoniae ATCC 15492", "test": "Anti-mycoplasmal activity in vitro MIC", "conditions": "Mycoplasmoides pneumoniae, ATCC15492, 144 h"}, "M. gallisepticum S6": {"test_system": "M. gallisepticum S6", "test": "Anti-mycoplasmal activity in vitro MIC", "conditions": "Mycoplasmoides gallisepticum, 144 h; M. gallisepticum S6; Friis broth, 0.9% agarose, 6 days 37° C.; read-out: M.I.C."}, "M. suipneumoniae NB12": {"test_system": "M. suipneumoniae NB12", "test": "Anti-mycoplasmal activity in vitro MIC", "conditions": "Mesomycoplasma hyopneumoniae, NB12, 144 h"}}, "data": [{"smiles": "C/C(=C\\C(=O)OCc1cccc(C=NO)c1)C[C@@H]1OC[C@H](C[C@@H]2O[C@H]2[C@@H](C)[C@H](C)O)[C@@H](O)[C@H]1O", "note": "[Example 8, m-Hydroxyiminomethylbenzyl monate A]", "values": [{"measurement": "MIC", "setting": "[1]", "result": 0.25, "unit": "µg/mL"}, {"measurement": "MIC", "setting": "M. suipneumoniae LABER", "result": 0.25, "unit": "µg/mL"}, {"measurement": "MIC", "setting": "M. suipneumoniae UCD 1", "result": 0.5, "unit": "µg/mL"}, {"measurement": "MIC", "setting": "[2]", "result": 0.5, "unit": "µg/mL"}, {"measurement": "MIC", "setting": "M. suipneumoniae MS16", "result": 0.25, "unit": "µg/mL"}, {"measurement": "MIC", "setting": "M. hyorhinis ATCC 25021", "result": 0.25, "unit": "µg/mL"}, {"measurement": "MIC", "setting": "[3]", "result": 0.025, "unit": "µg/mL"}, {"measurement": "MIC", "setting": "M. hyorhinis ATCC 23234", "result": 0.25, "unit": "µg/mL"}, {"measurement": "MIC", "setting": "M. dispar NCTC 10125", "result": 0.1, "unit": "µg/mL"}, {"measurement": "MIC", "setting": "M. bovis NCTC 10131", "result": "≤ 0.01", "unit": "µg/mL"}, {"measurement": "MIC", "setting": "[4]", "result": 0.25, "unit": "µg/mL"}, {"measurement": "MIC", "setting": "M. suipneumoniae HK (2)", "result": 0.5, "unit": "µg/mL"}, {"measurement": "MIC", "setting": "[5]", "result": 0.5, "unit": "µg/mL"}, {"measurement": "MIC", "setting": "M. suipneumoniae JF 435", "result": 0.5, "unit": "µg/mL"}, {"measurement": "MIC", "setting": "[6]", "result": 0.25, "unit": "µg/mL"}, {"measurement": "MIC", "setting": "M. suipneumoniae TAM 6N", "result": 0.5, "unit": "µg/mL"}, {"measurement": "MIC", "setting": "M. suipneumoniae Str. 11", "result": 0.25, "unit": "µg/mL"}, {"measurement": "MIC", "setting": "M. pneumoniae ATCC 15492", "result": 2.5, "unit": "µg/mL"}, {"measurement": "MIC", "setting": "M. gallisepticum S6", "result": 5, "unit": "µg/mL"}, {"measurement": "MIC", "setting": "M. suipneumoniae NB12", "result": 0.25, "unit": "µg/mL"}]}]}
